Laboratory results taken from PubChem BioAssay AID1259408 (Genetic Toxicology Data Bank (GENE-TOX), 2018).
Active and inactive are the calls of the source. No rule for the calls is given here.

System: GENE-TOX genotoxicity assays, various organisms and cells
Test: GENE-TOX mutagenicity studies
Conditions: for call: Assay Type: In vivo carcinogenicity studies
[1] = Species/Cell Type: Neurospora crassa, Assay Type: Forward gene mutation, Assay Code: NEF+, Evaluation Type: Evaluation A (Pre-1980)
[2] = Species/Cell Type: Nonhuman, Assay Type: Sister-chromatid exchange (SCE) in vitro, Assay Code: SC2+D, Dose Response: With dose response, Evaluation Type: Evaluation B (Post-1980)
[3] = Species/Cell Type: Saccharomyces cerevisiae, Assay Type: Mitotic recombination or gene conversion, Assay Code: YEH-, Evaluation Type: Evaluation A (Pre-1980)
[4] = Species/Cell Type: Salmonella typhimurium (one or more of the five standard strains: TA98, TA100, TA1535, TA1537, and TA1538), Assay Type: Histidine reverse gene mutation, Ames assay, Assay Code: SAL-, Evaluation Type: Evaluation A (Pre-1980)
[5] = Species/Cell Type: Escherichia coli polA (W3119 vs P3478), Assay Type: Rec-assay, DNA effects (bacterial DNA repair), Assay Code: RE1+, Evaluation Type: Evaluation A (Pre-1980)
[6] = Species/Cell Type: Saccharomyces cerevisiae, Assay Type: Mitotic recombination or gene conversion, Assay Code: YEC+, Evaluation Type: Evaluation A (Pre-1980)
[7] = Species/Cell Type: Salmonella typhimurium (one or more of the five standard strains: TA98, TA100, TA1535, TA1537, and TA1538), Assay Type: Histidine reverse gene mutation, Ames assay, Assay Code: SALT, Evaluation Type: Evaluation A (Pre-1980)
[8] = Species/Cell Type: Rodents, Sex: Male, Assay Type: Dominant lethal test, Assay Code: DLT-, Evaluation Type: Evaluation A (Pre-1980)
[9] = Species/Cell Type: Drosophila melanogaster, Assay Type: Sex-linked recessive lethal gene mutation, Assay Code: SRL+, Evaluation Type: Evaluation A (Pre-1980)
[10] = Species/Cell Type: Human lymphocytes, Assay Type: Sister-chromatid exchange (SCE) in vitro, Assay Code: SCL+, Evaluation Type: Evaluation B (Post-1980)
[11] = Species/Cell Type: Human, Assay Type: Sister-chromatid exchange (SCE) in vitro, Assay Code: SC1+, Evaluation Type: Evaluation B (Post-1980)
[12] = Species/Cell Type: Nonhuman, Assay Type: Sister-chromatid exchange (SCE) in vivo, Assay Code: SC3T, Evaluation Type: Evaluation B (Post-1980)
[13] = Species/Cell Type: Salmonella typhimurium (one or more of the five standard strains: TA98, TA100, TA1535, TA1537, and TA1538), Assay Type: Histidine reverse gene mutation, Ames assay, Assay Code: SAL+, Evaluation Type: Evaluation A (Pre-1980)

With `C1CN1P1(N2CC2)=NP(N2CC2)(N2CC2)=NP(N2CC2)(N2CC2)=N1` the mutagenic call [1] was “active; positive” and the mutagenic call (Species/Cell Type: Nonhuman, Assay Type: Sister-chromatid exchange (SCE) in vivo, Assay Code: SC3+, Evaluation Type: Evaluation B (Post-1980)) was “active; positive”.
In the case of `CC[N+](C)(CC)CCC[n+]1c(-c2ccccc2)c2cc(N)ccc2c2ccc(N)cc21`, the mutagenic call (Species/Cell Type: Mammalian cell culture, nonhuman, Assay Type: Micronucleus test in vitro, chromosome aberrations, Assay Code: MN&+, Evaluation Type: Evaluation A (Pre-1980)) is reported as “active; positive”.
In the case of `Cc1c2cc[n+](C)cc2c(C)c2c1[nH]c1ccc(O)cc12`, the mutagenic call (Species/Cell Type: Chinese hamster ovary (CHO) cells, Assay Type: Forward gene mutation at the HPRT locus, Assay Code: CHO+, Evaluation Type: Evaluation B (Post-1980)) is reported as “active; positive”.
`[Zn]` was tested, and the mutagenic call (Species/Cell Type: Human lymphocytes or leukocytes, Assay Type: Chromosome aberrations in vivo, Assay Code: CY8T, Evaluation Type: Evaluation A (Pre-1980)) was “no conclusion”.
In the case of `CSCCC(N)C(=O)O` (configuration not stated), the mutagenic call (Species/Cell Type: Escherichia coli polA (W3119 vs P3478), Assay Type: Rec-assay, DNA effects (bacterial DNA repair), Assay Code: RE1T, Evaluation Type: Evaluation A (Pre-1980)) is reported as “no conclusion”.
`Nc1ccccc1O` was tested, and the mutagenic call (Species/Cell Type: Human, Assay Type: Sister-chromatid exchange (SCE) in vitro, Assay Code: SC1+D, Dose Response: With dose response, Evaluation Type: Evaluation B (Post-1980)) was “active; positive”.
For `CO[C@@]12[C@H](COC(N)=O)C3=C(C(=O)C(C)=C(N)C3=O)N1C[C@H]1[C@@H]2N1C` (some centres not stated), the mutagenic call [2] was “active; positive”.
For `ClC(Cl)(Cl)C(Cl)(Cl)Cl`, the call (Species/Cell Type: Nonhuman, Assay Code: CCG+L, Evaluation Type: Evaluation A (Pre-1980)) was “active; positive”, the mutagenic call [3] was “inactive; negative” and the mutagenic call [4] was “inactive; negative”.
For `CCC(C)c1cc([N+](=O)[O-])cc([N+](=O)[O-])c1O` (configuration not stated), the mutagenic call (Species/Cell Type: Bacillus subtilis (H17 vs M45), Assay Type: Rec-assay, spot test, DNA effects (bacterial DNA repair), Assay Code: REW+, Evaluation Type: Evaluation A (Pre-1980)) was “active; positive”, the mutagenic call (Species/Cell Type: Drosophila melanogaster, Assay Type: Sex-linked recessive lethal gene mutation, Assay Code: SRLT, Evaluation Type: Evaluation A (Pre-1980)) was “no conclusion” and the mutagenic call (Species/Cell Type: Escherichia coli WP2 UVRA, Assay Type: Tryptophan reverse gene mutation, Assay Code: WPU-*, Activation: With metabolic activation, Evaluation Type: Evaluation A (Pre-1980)) was “inactive; negative”. For the same compound, the mutagenic call [5] was “active; positive”, the mutagenic call (Species/Cell Type: Human diploid fibroblasts, Assay Type: Unscheduled DNA synthesis (UDS) in vitro, DNA effects, Assay Code: UDH-, Evaluation Type: Evaluation A (Pre-1980)) was “inactive; negative” and the mutagenic call [6] was “active; positive”. For the same compound, the mutagenic call [3] was “inactive; negative” and the mutagenic call [7] was “no conclusion”.
With `NC(=S)NCCNC(N)=S` the mutagenic call (Species/Cell Type: Salmonella typhimurium, Assay Type: Forward and reverse gene mutation, host-mediated assay, Assay Code: HMA+, Evaluation Type: Evaluation A (Pre-1980)) was “active; positive”.
In the case of `OCC(Br)(Br)Br`, the mutagenic call (Species/Cell Type: Rodents, Sex: Female, Assay Type: Dominant lethal test, Assay Code: DLTF-, Evaluation Type: Evaluation A (Pre-1980)) is reported as “inactive; negative” and the mutagenic call [8] is reported as “inactive; negative”.
In the case of `CC1CC2=C(CCC2=O)c2ccc3ccccc3c21` (configuration not stated), the mutagenic call [7] is reported as “no conclusion”.
In the case of `CN(C)c1ccc(-c2ccc(N(C)C)cc2)cc1`, the mutagenic call [4] is reported as “inactive; negative”.
For `O=NO`, the mutagenic call (Species/Cell Type: Arabidopsis species, Assay Type: Gene mutation, Assay Code: ARMT, Evaluation Type: Evaluation A (Pre-1980)) was “no conclusion”, the mutagenic call (Species/Cell Type: Aspergillus nidulans, Assay Type: Forward gene mutation, Assay Code: ASF+, Evaluation Type: Evaluation A (Pre-1980)) was “active; positive” and the mutagenic call [9] was “active; positive”. For the same compound, the mutagenic call [5] was “active; positive”, the mutagenic call [10] was “active; positive” and the mutagenic call [11] was “active; positive”. For the same compound, the mutagenic call (Species/Cell Type: Mammalian oocytes or early embryo, Assay Type: Chromosome aberrations in vivo, Assay Code: CYO+, Evaluation Type: Evaluation A (Pre-1980)) was “active; positive”, the mutagenic call (Species/Cell Type: Mammalian polychromatic erythrocytes, Assay Type: Micronucleus test, chromosome aberrations, Assay Code: MNT+, Evaluation Type: Evaluation B (Post-1980)) was “active; positive” and the mutagenic call (Species/Cell Type: Mammalian polychromatic erythrocytes, Assay Type: Micronucleus test, chromosome aberrations, Assay Code: MNTT, Evaluation Type: Evaluation A (Pre-1980)) was “no conclusion”. The mutagenic call (Species/Cell Type: Mouse, Sex: Male, Assay Type: Heritable translocation test, chromosome aberrations, Assay Code: HTTT, Evaluation Type: Evaluation A (Pre-1980)) was “no conclusion”, the mutagenic call [1] was “active; positive” and the mutagenic call (Species/Cell Type: Neurospora crassa, Assay Type: Reverse gene mutation, Assay Code: NER+, Evaluation Type: Evaluation A (Pre-1980)) was “active; positive”. The mutagenic call (Species/Cell Type: Nonhuman, Assay Type: Chromosome aberrations in vitro, Assay Code: CY&+D, Dose Response: With dose response, Evaluation Type: Evaluation A (Pre-1980)) was “active; positive”, the mutagenic call (Species/Cell Type: Nonhuman, Assay Type: Sister-chromatid exchange (SCE) in vitro, Assay Code: SC2+, Evaluation Type: Evaluation A (Pre-1980)) was “active; positive” and the mutagenic call [12] was “no conclusion”. The mutagenic call [8] was “inactive; negative”, the mutagenic call (Species/Cell Type: Saccharomyces cerevisiae, Assay Type: Forward gene mutation, Assay Code: YEF+, Evaluation Type: Evaluation A (Pre-1980)) was “active; positive” and the mutagenic call [6] was “active; positive”. The mutagenic call (Species/Cell Type: Saccharomyces cerevisiae, Assay Type: Mitotic recombination or gene conversion, Assay Code: YEH+, Evaluation Type: Evaluation A (Pre-1980)) was “active; positive”, the mutagenic call (Species/Cell Type: Saccharomyces cerevisiae, Assay Type: Reverse gene mutation, Assay Code: YER+, Evaluation Type: Evaluation A (Pre-1980)) was “active; positive” and the mutagenic call [13] was “active; positive”. For the same compound, the mutagenic call (Species/Cell Type: Salmonella typhimurium, Assay Type: Forward and reverse gene mutation, host-mediated assay, Assay Code: HMA-, Evaluation Type: Evaluation A (Pre-1980)) was “inactive; negative”, the mutagenic call (Species/Cell Type: Schizosaccharomyces pombe, Assay Type: Forward gene mutation, Assay Code: YEY+, Evaluation Type: Evaluation A (Pre-1980)) was “active; positive” and the mutagenic call (Species/Cell Type: Schizosaccharomyces pombe, Assay Type: Reverse gene mutation, Assay Code: YEZ+, Evaluation Type: Evaluation A (Pre-1980)) was “active; positive”. The mutagenic call (Species/Cell Type: Syrian hamster embryo (SHE) cells, Assay Type: Cell transformation, clonal assay, Assay Code: CTC+, Evaluation Type: Evaluation A (Pre-1980)) was “active; positive”.
For `ClCC(Br)CBr` (configuration not stated), the mutagenic call [5] was “active; positive”, the mutagenic call (Species/Cell Type: Human, Sex: Male, Assay Type: Sperm morphology, Assay Code: SPH+, Evaluation Type: Evaluation A (Pre-1980)) was “active; positive” and the call (Species/Cell Type: Nonhuman, Assay Code: CCG+, Evaluation Type: Evaluation A (Pre-1980)) was “active; positive”. For the same compound, the mutagenic call [2] was “active; positive”, the mutagenic call [13] was “active; positive” and the mutagenic call (Species/Cell Type: Salmonella typhimurium, Assay Type: Forward and reverse gene mutation, body fluid assay, Assay Code: BFU-, Evaluation Type: Evaluation A (Pre-1980)) was “inactive; negative”.
With `CCC(=O)Oc1ccc(/C(CC)=C(\CC)c2ccc(OC(=O)CC)cc2)cc1` the mutagenic call [10] was “active; positive”, the mutagenic call [11] was “active; positive” and the mutagenic call [12] was “no conclusion”. The mutagenic call (Species/Cell Type: Saccharomyces cerevisiae, Assay Type: Aneuploidy, chromosome aberrations, Assay Code: YEN+, Evaluation Type: Evaluation A (Pre-1980)) was “active; positive”.
In the case of `CS(=O)(=O)OC[C@@H](O)[C@H](O)COS(C)(=O)=O`, the mutagenic call (Species/Cell Type: Allium cepa, Assay Type: Chromosome aberrations, Assay Code: ALC+, Evaluation Type: Evaluation A (Pre-1980)) is reported as “active; positive” and the mutagenic call (Species/Cell Type: Arabidopsis species, Assay Type: Gene mutation, Assay Code: ARM+, Evaluation Type: Evaluation A (Pre-1980)) is reported as “active; positive”.
`C[C@H]1c2cccc(O)c2C(O)=C2C(=O)[C@]3(O)C(O)=C(C(N)=O)C(=O)[C@@H](N(C)C)[C@@H]3[C@@H](O)[C@@H]21` was tested, and the mutagenic call (Species/Cell Type: Human, Sex: Male, Assay Type: Sperm morphology, Assay Code: SPHT, Evaluation Type: Evaluation A (Pre-1980)) was “no conclusion”.
With `CN(C)N=Nc1cccnc1` the mutagenic call [9] was “active; positive”, the mutagenic call (Species/Cell Type: Mammalian polychromatic erythrocytes, Assay Type: Micronucleus test, chromosome aberrations, Assay Code: MNT+, Evaluation Type: Evaluation A (Pre-1980)) was “active; positive” and the mutagenic call (Species/Cell Type: Saccharomyces cerevisiae, Assay Type: Forward and reverse gene mutation, mitotic recombination and gene conversion, host-mediated assay, Assay Code: HME+, Evaluation Type: Evaluation A (Pre-1980)) was “active; positive”. For the same compound, the mutagenic call [6] was “active; positive”.
In the case of `C[C@@H]1[C@H](O)[C@@H](C)/C=C/C=C/CC/C=C/C=C/C=C/C=C/C(O[C@H]2O[C@H](C)[C@@H](O)[C@H](N)[C@@H]2O)CC2O[C@](O)(CC(O)C(O)CCC(O)CC(O)CC(O)CC(=O)O[C@H]1C)CC(O)C2C(=O)O` (some centres not stated), the mutagenic call (Species/Cell Type: Neurospora crassa, Assay Type: Aneuploidy, chromosome aberrations, Assay Code: NEN-, Evaluation Type: Evaluation A (Pre-1980)) is reported as “inactive; negative”.
